Measured values reported in PubChem BioAssay (NCI).
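Where inhibition never reached the appropriate level, the endpoint shown equals the highest concentration tested. Otherwise, values were interpolated linearly from a five-concentration, 48-hour dose response in 96-well plates. GI50: concentration for 50% inhibition of growth. TGI denotes the concentration required for complete inhibition of growth.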

Tests used:
Experiment in all cases: NCI-60 cell line screen, 48 h
BT-549 breast = system: BT-549 breast
LOX IMVI melanoma = system: LOX IMVI melanoma
MDA-MB-435 = system: MDA-MB-435
SK-MEL-28 melanoma = system: SK-MEL-28 melanoma
TK-10 renal = system: TK-10 renal
DU-145 prostate = system: DU-145 prostate
SF-268 CNS = system: SF-268 CNS
IGROV1 ovarian = system: IGROV1 ovarian
SF-539 CNS = system: SF-539 CNS
SNB-75 CNS = system: SNB-75 CNS

Row | SMILES | TGI (BT-549 breast) | TGI (LOX IMVI melanoma) | TGI (MDA-MB-435) | TGI (SK-MEL-28 melanoma) | TGI (TK-10 renal) | TGI (DU-145 prostate) | TGI (SF-268 CNS) | TGI (IGROV1 ovarian) | TGI (SF-539 CNS) | TGI (SNB-75 CNS) | GI50 (BT-549 breast) | GI50 (LOX IMVI melanoma) | GI50 (SNB-75 CNS) | GI50 (MDA-MB-435) | GI50 (SK-MEL-28 melanoma) | GI50 (TK-10 renal) | GI50 (DU-145 prostate) | GI50 (SF-268 CNS) | GI50 (IGROV1 ovarian)
1 | O=C1NC(=O)C(C(c2ccc([N+](=O)[O-])cc2)C2C(=O)NC(=O)NC2=O)C(=O)N1 | > 100 µM | > 100 µM | > 100 µM | > 100 µM | > 100 µM | > 100 µM | > 100 µM | > 100 µM | – | – | – | – | – | – | – | – | – | – | –
2 | CN(CCNC(=O)c1nn(-c2ccc(Cl)cc2Cl)c2c1Cc1ccccc1-2)CCNC(=O)c1nn(-c2ccc(Cl)cc2Cl)c2c1Cc1ccccc1-2 | 38.2 µM | – | 2.43 µM | 4.97 µM | 24.6 µM | > 61.9 µM | > 100 µM | > 100 µM | 3.68 µM | > 48.2 µM | – | – | – | – | – | – | – | – | –
3 | O=c1oc2cc(O)ccc2c2oc3cc(O)ccc3c12 | – | > 102 µM | – | > 125 µM | – | – | > 82.5 µM | > 125 µM | 122 µM | > 125 µM | – | – | – | – | – | – | – | – | –
4 | CN(C)c1ccc(C2CC(=O)CC(c3ccc(N(C)C)cc3)C23C(=O)NC(=S)NC3=O)cc1 (configuration not stated) | – | > 100 µM | > 100 µM | > 100 µM | > 100 µM | > 100 µM | > 100 µM | – | > 100 µM | 31.2 µM | – | – | – | – | – | – | – | – | –
5 | N#Cc1ccc([N+](=O)[O-])cc1NC(N)=S | – | – | – | > 100 µM | – | – | > 100 µM | > 100 µM | > 100 µM | > 100 µM | – | – | – | – | – | – | – | – | –
6 | CN1c2c(nc(N)[nH]c2=O)NCC1CCNc1ccc(C(=O)NC(CCC(=O)O)C(=O)O)cc1 (configuration not stated) | 2750 µM | 783 µM | 1770 µM | 2290 µM | 2500 µM | 2660 µM | 2710 µM | 2470 µM | 2190 µM | 2660 µM | – | – | – | – | – | – | – | – | –
7 | CC1=C[C@H]([C@H]2C=C(C)C(C(N)=O)=CN2Cc2c(Cl)cccc2Cl)N(Cc2c(Cl)cccc2Cl)C=C1C(N)=O | > 75 µM | > 75 µM | > 75 µM | > 75 µM | > 75 µM | > 75 µM | > 75 µM | – | > 75 µM | – | – | – | – | – | – | – | – | – | –
8 | O=C1CCCCN1 | – | > 1120 µM | – | > 1120 µM | – | – | > 1120 µM | > 1120 µM | > 1120 µM | > 1120 µM | – | – | – | – | – | – | – | – | –
9 | CC1=C(SCCO)C(=O)c2ccccc2C1=O | 31.7 µM | 24.6 µM | 23.9 µM | 25.9 µM | 30.4 µM | 29.6 µM | 29.9 µM | 27.3 µM | 24.9 µM | 30.1 µM | – | – | – | – | – | – | – | – | –
10 | c1ccc(SCCc2ccncc2)cc1 | > 100 µM | > 100 µM | > 100 µM | > 100 µM | > 100 µM | > 100 µM | > 100 µM | > 100 µM | > 100 µM | > 100 µM | – | – | – | – | – | – | – | – | –
11 | O=S(=O)(O)c1cc(S(=O)(=O)O)c2c(N=Nc3ccc(S(=O)(=O)O)c4ccccc34)c(O)ccc2c1 | > 100 µM | > 100 µM | > 100 µM | > 100 µM | > 100 µM | > 100 µM | > 100 µM | > 100 µM | – | > 100 µM | – | – | – | – | – | – | – | – | –
12 | COc1nc2ccc(CNc3ccc(C(=O)NC(CCC(=O)O)C(=O)O)cc3)cc2nc1OC (configuration not stated) | > 100 µM | > 100 µM | > 100 µM | > 100 µM | > 100 µM | > 100 µM | > 100 µM | > 100 µM | – | > 100 µM | – | – | – | – | – | – | – | – | –
13 | Nc1nc(SCCNC(=O)CCc2ccc(O)c(I)c2)nc2c1ncn2C1OC(CO)C(O)C1O (configuration not stated) | – | – | – | > 100 µM | > 100 µM | – | > 100 µM | > 100 µM | > 100 µM | > 100 µM | – | – | – | – | – | – | – | – | –
14 | COc1cc2c3c(n(CCCn4cncn4)c(=O)c2cc1OC)-c1cc2c(cc1C3=O)OCO2 | > 100 µM | > 49.3 µM | > 100 µM | > 100 µM | > 88.1 µM | > 34.7 µM | > 100 µM | > 100 µM | 19.6 µM | 99.1 µM | 31.1 µM | 0.0572 µM | 0.799 µM | > 100 µM | > 100 µM | 35.2 µM | < 0.0293 µM | 99 µM | 10.9 µM
15 | CC(=O)OCC1=CC2OC(=O)C3=COC(OC4OC(CO)C(O)C(O)C4O)C1C32 (configuration not stated) | > 100 µM | > 100 µM | > 100 µM | > 100 µM | > 100 µM | > 100 µM | > 100 µM | > 100 µM | > 100 µM | > 100 µM | – | – | – | – | – | – | – | – | –
16 | CC(=O)OCCCCN1C(=O)CSc2ccccc21 | > 100 µM | > 100 µM | > 100 µM | > 100 µM | > 100 µM | > 100 µM | – | > 100 µM | > 100 µM | > 100 µM | – | – | – | – | – | – | – | – | –
17 | CC(ON1[C@](C)(c2ccccc2)CC[C@@]1(C)c1ccccc1)c1ccccc1 (some centres not stated) | 42.2 µM | > 100 µM | > 100 µM | > 100 µM | > 100 µM | > 100 µM | > 100 µM | > 100 µM | > 100 µM | 54.6 µM | – | – | – | – | – | – | – | – | –
